19 compounds from US10072026B2, “Crystalline form of 3-((1R,3s,5S)-3-((7-((5-methyl-1H-pyrazol-3-yl)amino)-1,6-naphthyridin-5-yl)amino)-8-azabicyclo[3.2.1]octan-8-yl)propanenitrile” (priority 2015, dated 2018) can be followed below.

The structures appear in SMILES notation. Some results are limits rather than exact numbers.

One assay relates to IL-4 induced STAT6 phosphorylation in THP-1 human monocytic cells. Briefly: Cellular JAK potency assay, THP-1. As to conditions: Homo sapiens, THP-1, read-out: THP-1 IL4 pIC50 (converted).
On to `Cc1cc(Nc2cc3ncccc3c(N[C@@H]3C[C@H]4CC[C@@H](C3)N4Cc3cccc(O)c3)n2)n[nH]1` [Example 1-19], for which the IC50 is 31.6 to 200 nM.
On the same count and under the same terms, in the case of `Cc1cc(Nc2cc3ncccc3c(N[C@@H]3C[C@H]4CC[C@@H](C3)N4CC3COC(=O)O3)n2)n[nH]1` (stereo partly shown) [Example 1-30] it was 31.6 to 200 nM.
Same read-out and setting: next, `COC(=O)C1(C(=O)N2[C@@H]3CC[C@H]2C[C@H](Nc2nc(Nc4cc(C)[nH]n4)cc4ncccc24)C3)CC1` [Example 2-9]: more than 200 nM; `Cc1cc(Nc2cc3ncccc3c(N[C@@H]3C[C@H]4CC[C@@H](C3)N4S(=O)(=O)c3ccccn3)n2)n[nH]1` [Example 4-14]: 31.6 to 200 nM.
As for `Cc1cc(Nc2cc3nc(CN4CCOCC4)ccc3c(N[C@@H]3C[C@H]4CC[C@@H](C3)N4S(C)(=O)=O)n2)n[nH]1` [Example 5-15], the IC50 was 31.6 to 200 nM.

Staying with this assay, now noted: IL-4 induced STAT6 phosphorylation, THP-1 cells.
For the compound `COC(=O)CN1[C@@H]2CC[C@H]1C[C@H](Nc1nc(Nc3cc(C)[nH]n3)cc3ncccc13)C2` [Example 1-1], the “THP-1 IL4 pIC50” value is “C (C represents a pEC50 value<6.7 (EC50>200 nM))”.
With `COC(=O)CCN1[C@@H]2CC[C@H]1C[C@H](Nc1nc(Nc3cc(C)[nH]n3)cc3ncccc13)C2` [Example 1-2], the “THP-1 IL4 pIC50” value was “C (C represents a pEC50 value<6.7 (EC50>200 nM))”.
Still for that read-out and setting: next, `COC(=O)CCCN1[C@@H]2CC[C@H]1C[C@H](Nc1nc(Nc3cc(C)[nH]n3)cc3ncccc13)C2` [Example 1-3]: “C (C represents a pEC50 value<6.7 (EC50>200 nM))”; `Cc1cc(Nc2cc3ncccc3c(N[C@@H]3C[C@H]4CC[C@@H](C3)N4CC(=O)N[C@@H]3CCOC3=O)n2)n[nH]1` [Example 1-11]: “C (C represents a pEC50 value<6.7 (EC50>200 nM))”; `Cc1cc(Nc2cc3ncccc3c(N[C@@H]3C[C@H]4CC[C@@H](C3)N4CC(=O)N[C@H]3CCOC3=O)n2)n[nH]1` [Example 1-12]: “C (C represents a pEC50 value<6.7 (EC50>200 nM))”.
The same measure, in the same setting: next, `Cc1cc(Nc2cc3ncccc3c(N[C@@H]3C[C@H]4CC[C@@H](C3)N4CC3CCC(=O)O3)n2)n[nH]1` (stereo partly shown) [Example 1-29]: “C (C represents a pEC50 value<6.7 (EC50>200 nM))”.
The same measure, in the same setting: in the case of `Cc1cc(Nc2cc3ncccc3c(N[C@@H]3C[C@H]4CCC[C@@H](C3)N4CC(=O)OC(C)C)n2)n[nH]1` [Example 1-35] it was “A (A represents a pEC50 value≥7.5 (EC50≤32 nM))”; in that of `Cc1cc(Nc2cc3ncccc3c(N[C@@H]3C[C@H]4CCC[C@@H](C3)N4CC(F)(F)F)n2)n[nH]1` [Example 1-45], “B (B represents a pEC50 value between 6.7 and 7.5 (EC50 between 200 nM and 32 nM))”.
With `Cc1cc(Nc2cc3ncccc3c(N[C@@H]3C[C@H]4CCC[C@@H](C3)N4Cc3cccc(O)c3)n2)n[nH]1` [Example 1-49], the “THP-1 IL4 pIC50” value is “A (A represents a pEC50 value≥7.5 (EC50≤32 nM))”.
For `Cc1cc(Nc2cc3ncccc3c(N[C@@H]3C[C@H]4CCC[C@@H](C3)N4[C@H]3CCOC3=O)n2)n[nH]1` [Example 1-51], the “THP-1 IL4 pIC50” value is “B (B represents a pEC50 value between 6.7 and 7.5 (EC50 between 200 nM and 32 nM))”.
On the same count and under the same terms, next, `Cc1cc(Nc2cc3ncccc3c(N[C@@H]3C[C@H]4CCC[C@@H](C3)N4[C@@H]3CCOC3=O)n2)n[nH]1` [Example 1-52]: “B (B represents a pEC50 value between 6.7 and 7.5 (EC50 between 200 nM and 32 nM))”.
For the compound `CCOCC(=O)N1[C@@H]2CC[C@H]1C[C@H](Nc1nc(Nc3cc(C)[nH]n3)cc3ncccc13)C2` [Example 2-4], the “THP-1 IL4 pIC50” value was “C (C represents a pEC50 value<6.7 (EC50>200 nM))”.
On the same count and under the same terms, next, `Cc1cc(Nc2cc3ncccc3c(N[C@@H]3C[C@H]4CCC[C@@H](C3)N4S(C)(=O)=O)n2)n[nH]1` [Example 4-16]: “A (A represents a pEC50 value≥7.5 (EC50≤32 nM))”.
The same measure, in the same setting: next, `C=CCS(=O)(=O)N1[C@@H]2CCC[C@H]1C[C@H](Nc1nc(Nc3cc(C)[nH]n3)cc3ncccc13)C2` [Example 4-22]: “A (A represents a pEC50 value≥7.5 (EC50≤32 nM))”.
